In patent US20020143040A1, “Heterocyclic aromatic oxazole compounds and use thereof” (priority 1994, published 2002):
Where two headings read alike, the source gives them in different places. Each block holds one molecule with its values, some of them ahead of it.

What was measured:
human cyclooxygenase-2 = target: T1, human cyclooxygenase-2 (Homo sapiens, UniProt P35354); assay: Inhibitory action on cyclooxygenase-2 (conversion of 14C arachidonic acid into PGH2); conditions: for COX-1/COX-2: ratio of IC50 COX-1 to IC50 COX-2
T1 sequence (P35354 18-604): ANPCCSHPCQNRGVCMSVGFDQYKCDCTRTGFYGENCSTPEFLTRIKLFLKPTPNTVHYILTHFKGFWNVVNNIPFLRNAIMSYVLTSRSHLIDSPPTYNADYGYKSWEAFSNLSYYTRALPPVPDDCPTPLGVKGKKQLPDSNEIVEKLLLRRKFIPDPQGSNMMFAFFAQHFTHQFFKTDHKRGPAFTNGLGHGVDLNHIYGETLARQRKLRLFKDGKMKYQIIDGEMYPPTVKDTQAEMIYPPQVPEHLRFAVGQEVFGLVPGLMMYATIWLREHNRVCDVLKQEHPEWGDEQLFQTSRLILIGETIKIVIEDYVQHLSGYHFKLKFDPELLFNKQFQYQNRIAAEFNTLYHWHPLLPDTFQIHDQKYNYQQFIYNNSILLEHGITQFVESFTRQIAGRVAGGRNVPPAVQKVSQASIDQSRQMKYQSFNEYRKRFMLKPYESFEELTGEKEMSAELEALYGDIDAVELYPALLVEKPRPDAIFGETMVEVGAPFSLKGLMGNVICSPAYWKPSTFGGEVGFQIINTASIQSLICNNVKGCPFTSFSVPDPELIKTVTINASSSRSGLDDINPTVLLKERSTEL
Protocol: The enzymatic activity was determined from the percent conversion of ^14C arachidonic acid into prostaglandin H2 (PGH2) and the decomposed product thereof. That is, a test sample (20 μl), an enzyme solution (20 μl) and distilled water (10 μl) were added to 100 mM Tris-HCl buffer (pH 8, 140 μl) containing hematin (2 μM) and tryptophan (5 mM), and the mixture was thoroughly stirred, which was followed by preincubation at 24° C. for 5 minutes. Then, a ^14C arachidonic acid solution (10 μl) was added and the mixture was reacted at 24° C., whereafter a solution (40 μl) of ethyl ether/methanol/1M citric acid (30/4/1) ice-cooled to −20° C. was added to stop the reaction. The reaction mixture was centrifuged for 5 minutes at 3,000 rpm to give an ether layer which was placed on a thin plate, and developed with ethyl ether/methanol/acetic acid (90/2/0.1) to determine percent conversion (A) from arachidonic acid to PGH2 and the decomposed product thereof.
An enzyme prepared from human platelets was used as an enzyme solution of cyclooxygenase-1, and an enzyme expressed by a yeast, into which cDNA of human cyclooxygenase-2 had been introduced using a kit of Invitrogen Corp., was used as an enzyme solution of cyclooxygenase-2.

[1] = target: cyclooxygenase-1 prepared from human platelets (Homo sapiens, UniProt P23219); assay: Inhibitory action on cyclooxygenase-1 (conversion of 14C arachidonic acid into PGH2); type: biochemical; conditions: enzyme prepared from human platelets; preincubation 24° C. 5 minutes; read-out: IC50 (μM) COX-1
cyclooxygenase-1 prepared from human platelets, sequence (P23219 24-599): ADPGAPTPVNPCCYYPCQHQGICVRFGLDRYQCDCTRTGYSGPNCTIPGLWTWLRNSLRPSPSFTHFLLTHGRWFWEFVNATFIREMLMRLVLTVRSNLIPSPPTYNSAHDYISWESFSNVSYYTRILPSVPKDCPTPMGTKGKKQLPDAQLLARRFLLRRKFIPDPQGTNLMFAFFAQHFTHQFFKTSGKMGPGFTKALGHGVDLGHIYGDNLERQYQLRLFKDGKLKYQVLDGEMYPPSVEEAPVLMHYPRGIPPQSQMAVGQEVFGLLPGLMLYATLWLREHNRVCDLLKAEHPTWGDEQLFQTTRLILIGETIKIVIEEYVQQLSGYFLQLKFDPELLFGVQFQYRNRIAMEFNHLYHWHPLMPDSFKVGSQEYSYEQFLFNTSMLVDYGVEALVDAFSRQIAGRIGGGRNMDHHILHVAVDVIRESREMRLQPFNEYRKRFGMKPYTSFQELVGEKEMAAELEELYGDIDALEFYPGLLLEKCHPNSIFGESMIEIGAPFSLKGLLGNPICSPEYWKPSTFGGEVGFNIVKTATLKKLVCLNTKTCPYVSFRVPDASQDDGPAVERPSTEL
Source text: (Inhibitory Action on Cyclooxygenase)
Inhibition (%)=(1−A/B)×100

[2] = tested on: carrageenin-induced podedema; assay: Effects on carrageenin-induced podedema; type: in vivo, male Donryu rats; conditions: p.o. one hour before carrageenin; limb volume 3 hours after carrageenin; dose inhibiting by 30% relative to control group
Protocol: (Effects on Carrageenin-induced Podedema)
Carrageenin (1%, 0.05 ml) dissolved in physiological saline was subcutaneously injected to the left hindlimb of male Donryu rats to induce podedema. The degree of podedema was evaluated by measuring the volume of the limb 3 hours after carrageenin administration. A test compound (1, 3, 10 or 30 mg/kg) was orally administered one hour before carrageenin administration, and suppression thereby was studied. Inhibitory activity was expressed by the dose (ED30) of the test compound necessary for inhibiting by 30% relative to the control group.

SMILES: Cc1nc(C2CCCCC2)c(-c2ccc(S(C)(=O)=O)c(F)c2)o1 [Example 3, 4-cyclohexyl-5-(3-fluoro-4-methylsulfonylphenyl)-2-methyloxazole]
COX-1/COX-2 (human cyclooxygenase-2): >333

SMILES: Cc1nc(C2CCCCC2)c(-c2ccc(S(N)(=O)=O)c(Cl)c2)o1 [Example 4]
IC50 (human cyclooxygenase-2): > 10 µM

COX-1/COX-2 (human cyclooxygenase-2): >625
SMILES: Cc1nc(C2CCCCC2)c(-c2cc(F)c(S(N)(=O)=O)c(F)c2)o1 [Example 6]

IC50 [1]: 5 µM
IC50 (human cyclooxygenase-2; read-out: IC50 (μM) COX-2, enzyme expressed by yeast with cDNA of human cyclooxygenase-2, preincubation 24° C. 5 minutes): 0.02 µM
SMILES: Cc1nc(-c2ccc(F)cc2)c(-c2ccc(S(N)(=O)=O)cc2)o1 [Control 2, reference compound]

SMILES: Cc1nc(C2CCCCC2)c(-c2ccc(S(N)(=O)=O)cc2)o1 [Control 1, reference compound]
COX-1/COX-2 (human cyclooxygenase-2): 643

SMILES: Cc1nc(C2CCCCC2)c(-c2ccc(S(N)(=O)=O)c(C)c2)o1 [Example 5]
IC50 (human cyclooxygenase-2): > 10 µM

COX-1/COX-2 (human cyclooxygenase-2): 1,233
SMILES: Cc1nc(-c2ccc(F)cc2)c(-c2ccc(S(N)(=O)=O)c(F)c2)o1 [Example 7, 5-(4-aminosulfonyl-3-fluorophenyl)-4-(4-fluorophenyl)-2-methyloxazole]

SMILES: COc1ccc2c(c1)c(CC(=O)O)c(C)n2C(=O)c1ccc(Cl)cc1 [Indomethacin, reference compound]
carrageenin-induced podedema in rats, ED30 (mg/kg p.o.) [2]: 2.9 mg/kg

SMILES: Cc1nc(C2CCCCC2)c(-c2ccc(S(N)(=O)=O)c(F)c2)o1 [Example 2, 5-(4-aminosulfonyl-3-fluorophenyl)-4-cyclohexyl-2-methyloxazole]
IC50 [1]: > 100 µM
carrageenin-induced podedema in rats, ED30 (mg/kg p.o.) [2]: 5.5 mg/kg
COX-1/COX-2 (human cyclooxygenase-2): >1,428
